1 compound from ChEMBL document CHEMBL4257587 (J Med Chem, 2018) can be followed below.

Data set [1] has as its system Mycobacterium tuberculosis. Briefly: Antimycobacterial activity against Mycobacterium tuberculosis H37Rv ATCC 25618 after 6 days by resazurin-based assay. The class given is functional. Particulars: H37Rv ATCC 25618, 144 h.
The nature of data set [2]: Intrinsic clearance in mouse liver microsomes at 0.5 uM preincubated with NADPH and measured up to 30 mins by LC-MS/MS analysis. The class given is ADME, microsome.
A short description of data set [3]: Intrinsic clearance in human liver microsomes at 0.5 uM preincubated with NADPH and measured up to 30 mins by LC-MS/MS analysis. The class given is ADME, microsome.
The subject of data set [4] is HepG2. Briefly: Cytotoxicity against human HepG2 cells assessed as effect on mitochondrial membrane potential after 48 hrs by TMRM-staining based cell health assay. The class given is ADME. The settings on record: HepG2, 48 h.
The test system of data set [5] is HepG2. The data set is described as follows: cells. In kind it is ADME, cell-based. The settings on record: Homo sapiens, HepG2, 48 h.
Description: Cytotoxicity against human HepG2 cells assessed as effect on nuclear morphology after 48 hrs by Hoechst 33342-staining based cell health assay
Data set [6] is described as follows: Cardiotoxicity in New Zealand white perfused rabbit heart left ventricular wedge assessed as prolongation of QT interval at 10 uM by electrophysiology assay. The class given is toxicity, tissue-based, Oryctolagus cuniculus, Heart left ventricle.
The nature of data set [7]: Cardiotoxicity in New Zealand white perfused rabbit heart left ventricular wedge assessed as prolongation of QRS interval time at 30 uM by electrophysiology assay relative to control. In kind it is toxicity, tissue-based, Oryctolagus cuniculus, Heart left ventricle.
Data set [8] in a line: Cardiotoxicity in New Zealand white perfused rabbit heart left ventricular wedge assessed as drug concentration causing prolongation of Tp-e interval time by electrophysiology assay. In kind it is toxicity, tissue-based, Oryctolagus cuniculus, Heart left ventricle.
The nature of data set [9]: Cardiotoxicity in New Zealand white perfused rabbit heart left ventricular wedge assessed as prolongation of Tp-e interval time at 10 uM by electrophysiology assay relative to control. In kind it is toxicity, tissue-based, Oryctolagus cuniculus, Heart left ventricle.

Converted amounts (≈) assume the structure as drawn.

Take `CC(C)(C)c1ccc(CN2CCC3(CCCCO3)CC2)cc1`: the MIC90 in data set [1] is 0.21 µM (≈ 0.0633 µg/mL). Also, the values for the CLH in [2] and in data set [3] were 18.1 mL/min/g and 3.2 mL/min/g, respectively. The 50% inhibitory concentration (IC50) with HepG2 [4] was found to be 135 µM; with HepG2 [5], 129 µM. Moreover, the Activity came to 12.2% in [6], 25.4% in data set [7], 10 µM in [8] and 44.4% in data set [9].
